≈ marks a conversion by molar mass, not a printed value. One block for each compound: values may come before it.
Columns and labels:
Assay in all cases: ≥ marks a high value that may be exact or a test limit, other limits are often not marked, values filed in µg/mL are converted to µM
[1] = test system: Pseudomonas aeruginosa ATCC 27853
[2] = test system: Staphylococcus aureus NCTC 10788
[3] = test system: Candida albicans NCYC 1467
[4] = test system: Escherichia coli NCTC 10418
[5] = test system: Pseudomonas aeruginosa H1001
[6] = test system: Enterococcus faecalis NCTC 12697
[7] = test system: Staphylococcus aureus NCTC 12493
[8] = test system: Candida albicans
[9] = test system: Escherichia coli MG1655
[10] = test system: Pseudomonas aeruginosa PAO1
[11] = test system: Staphylococcus aureus ATCC 25923
[12] = test system: Streptococcus pyogenes
[13] = test system: Pseudomonas aeruginosa
[14] = test system: Proteus mirabilis
[15] = test system: Staphylococcus aureus
[16] = test system: Escherichia coli SBS 363
[17] = test system: Serratia marcescens ATCC 4112
[18] = test system: Staphylococcus aureus ATCC 29213
[19] = test system: Candida albicans MDM8
[20] = test system: Micrococcus luteus A270
[21] = test system: Candida tropicalis IOC 4560
[22] = test system: Bacillus megaterium ATCC 10778
[23] = test system: Enterobacter cloacae beta-12
[24] = test system: Staphylococcus epidermidis ATCC 12228

MIC [1]: > 249 µM
MIC [2]: ≥ 62.2 µM
MIC [3]: 31.1 µM (≈ 64 µg/mL)
MIC [4]: ≥ 62.2 µM
SMILES: CC[C@H](C)[C@H](NC(=O)[C@H](CC(C)C)NC(=O)[C@H](C)NC(=O)[C@H](CO)NC(=O)[C@@H](NC(=O)[C@H](CC(C)C)NC(=O)[C@@H](N)CC(N)=O)C(C)C)C(=O)N[C@@H](CCC(=O)O)C(=O)NCC(=O)N[C@@H](CCCN=C(N)N)C(=O)N[C@@H](CCCCN)C(=O)N[C@@H](Cc1ccc(O)cc1)C(=O)N[C@@H](CC(C)C)C(=O)N[C@@H](CCCCN)C(=O)N[C@@H](CC(N)=O)C(=O)N[C@H](C(=O)N[C@@H](CC(C)C)C(=O)N[C@@H](CCCCN)C(=O)O)C(C)C [NLVSALIEGRKYLKNVLK]

MIC [5]: 0.0597 µM (≈ 0.15 µg/mL)
SMILES: CC[C@H](C)[C@H](NC(=O)[C@H](CCCN=C(N)N)NC(=O)[C@H](CCCN=C(N)N)NC(=O)[C@@H]1CCCN1C(=O)[C@H](Cc1ccc(O)cc1)NC(=O)[C@H](CCCN=C(N)N)NC(=O)[C@@H]1CCCN1C(=O)[C@H](CCCN=C(N)N)NC(=O)[C@@H]1CCCN1C(=O)[C@H](CC(C)C)NC(=O)[C@H](Cc1ccc(O)cc1)NC(=O)[C@@H]1CCCN1C(=O)[C@@H]1CCCN1C(=O)[C@H](CCCCN)NC(=O)[C@H](CC(=O)O)NC(=O)[C@@H](N)C(C)C)C(=O)N[C@@H](Cc1ccc(O)cc1)C(=O)N[C@@H](CC(N)=O)C(=O)N[C@@H](CCCN=C(N)N)C(=O)NCC(=O)O [VDKPPYLPRPRYPRRIYNRG]

MIC [6]: 16.6 µM (≈ 32 µg/mL)
MIC [2]: 4.14 µM (≈ 8 µg/mL)
MIC [3]: 2.07 µM (≈ 4 µg/mL)
MIC [4]: 16.6 µM (≈ 32 µg/mL)
MIC [7]: 4.14 µM (≈ 8 µg/mL)
SMILES: CC[C@H](C)[C@H](NC(=O)CNC(=O)CNC(=O)[C@H](C)NC(=O)[C@@H](NC(=O)[C@H](CCCCN)NC(=O)[C@@H]1CCCN1C(=O)[C@@H](NC(=O)[C@H](CC(C)C)NC(=O)[C@H](CO)NC(=O)[C@H](CC(C)C)NC(=O)[C@@H](N)Cc1ccccc1)[C@@H](C)CC)[C@@H](C)CC)C(=O)N[C@@H](C)C(=O)N[C@@H](C)C(=O)N[C@@H](CC(C)C)C(=O)N[C@@H](C)C(=O)N[C@@H](CCCCN)C(=O)N[C@@H](Cc1cnc[nH]1)C(=O)N[C@@H](CC(C)C)C(N)=O [FLSLIPKIAGGIAALAKHL]

MIC [5]: ≥ 40.4 µM
SMILES: CC[C@H](C)[C@H](NC(=O)[C@H](CCCCN)NC(=O)[C@H](CCCCN)NC(=O)[C@H](Cc1cnc[nH]1)NC(=O)[C@@H](NC(=O)[C@H](CCCN=C(N)N)NC(=O)[C@H](CS)NC(=O)[C@H](CC(C)C)NC(=O)[C@H](CC(C)C)NC(=O)[C@@H](N)CCCCN)C(C)C)C(=O)O [KLLCRVHKKI]

MIC [5]: 0.0886 µM (≈ 0.22 µg/mL)
SMILES: CC[C@H](C)[C@H](NC(=O)[C@H](CCCN=C(N)N)NC(=O)[C@H](CCCN=C(N)N)NC(=O)[C@@H]1CCCN1C(=O)[C@H](CCSC)NC(=O)[C@H](CCCN=C(N)N)NC(=O)[C@@H]1CCCN1C(=O)[C@H](CCCN=C(N)N)NC(=O)[C@@H]1CCCN1C(=O)[C@H](CC(C)C)NC(=O)[C@H](Cc1ccc(O)cc1)NC(=O)[C@@H]1CCCN1C(=O)[C@@H]1CCCN1C(=O)[C@H](CCCCN)NC(=O)[C@H](CC(=O)O)NC(=O)[C@@H](N)C(C)C)C(=O)N[C@@H](Cc1ccc(O)cc1)C(=O)N[C@@H](CC(N)=O)C(=O)N[C@@H](CCCN=C(N)N)C(=O)NCC(=O)O [VDKPPYLPRPRMPRRIYNRG]

MIC [6]: ≥ 64 µM
MIC [1]: 4 µM (≈ 11.6 µg/mL)
MIC [2]: 4 µM (≈ 11.6 µg/mL)
MIC [3]: 4 µM (≈ 11.6 µg/mL)
MIC [4]: 4 µM (≈ 11.6 µg/mL)
MIC [7]: 4 µM (≈ 11.6 µg/mL)
SMILES: CSCC[C@H](NC(=O)[C@H](CC(=O)O)NC(=O)[C@@H](NC(=O)[C@@H](NC(=O)[C@H](C)NC(=O)[C@H](CC(N)=O)NC(=O)[C@H](CC(C)C)NC(=O)[C@H](C)NC(=O)[C@H](C)NC(=O)[C@H](CCCCN)NC(=O)CNC(=O)[C@H](C)NC(=O)[C@H](C)NC(=O)[C@H](CCCCN)NC(=O)CNC(=O)[C@@H](NC(=O)[C@H](CC(N)=O)NC(=O)[C@H](CCCCN)NC(=O)[C@H](CC(C)C)NC(=O)[C@H](CC(C)C)NC(=O)[C@H](CO)NC(=O)[C@H](CCCCN)NC(=O)[C@H](Cc1c[nH]c2ccccc12)NC(=O)[C@H](CC(C)C)NC(=O)[C@H](C)N)C(C)C)C(C)C)[C@@H](C)O)C(=O)N[C@H](C(=O)N[C@@H](CC(N)=O)C(=O)N[C@@H](CCC(N)=O)C(N)=O)C(C)C [ALWKSLLKNVGKAAGKAALNAVTDMVNQ]

MIC [8]: 8 µM (≈ 17.4 µg/mL)
MIC [9]: 1 µM (≈ 2.17 µg/mL)
MIC [10]: 8 µM (≈ 17.4 µg/mL)
MIC [11]: 8 µM (≈ 17.4 µg/mL)
SMILES: CSCC[C@H](NC(=O)[C@@H](NC(=O)[C@H](CCCCN)NC(=O)[C@H](Cc1cnc[nH]1)NC(=O)[C@H](CC(C)C)NC(=O)CN)C(C)C)C(=O)N[C@@H](CCCN=C(N)N)C(=O)N[C@@H](CCCCN)C(=O)N[C@H](C(=O)N[C@@H](CC(C)C)C(=O)NCC(=O)N[C@@H](Cc1ccc(O)cc1)C(=O)N[C@@H](CC(C)C)C(=O)N[C@@H](CCCN=C(N)N)C(=O)N[C@@H](CC(N)=O)C(=O)N[C@H](C(=O)N[C@@H](Cc1ccc(O)cc1)C(=O)N[C@@H](CCCCN)C(N)=O)C(C)C)C(C)C [GLHKVMRKVLGYLRNVYK]

MIC [5]: ≥ 89 µM
SMILES: NCCCC[C@H](NC(=O)[C@H](CCCCN)NC(=O)[C@H](Cc1c[nH]c2ccccc12)NC(=O)[C@H](CCCCN)NC(=O)[C@H](Cc1c[nH]c2ccccc12)NC(=O)[C@H](Cc1c[nH]c2ccccc12)NC(=O)[C@H](CCCCN)NC(=O)[C@H](Cc1c[nH]c2ccccc12)NC(=O)[C@@H](N)CCCCN)C(N)=O [KWKWWKWKK]

MIC [12]: 0.807 µM (≈ 1.62 µg/mL)
MIC [13]: > 31.8 µM
MIC [14]: 31.8 µM (≈ 64 µg/mL)
MIC [15]: 3.98 µM (≈ 8 µg/mL)
SMILES: NC(N)=NCCC[C@H](NC(=O)[C@H](CCCN=C(N)N)NC(=O)[C@H](CCCN=C(N)N)NC(=O)[C@H](CCCN=C(N)N)NC(=O)[C@H](Cc1c[nH]c2ccccc12)NC(=O)[C@H](Cc1c[nH]c2ccccc12)NC(=O)[C@H](Cc1c[nH]c2ccccc12)NC(=O)[C@H](Cc1c[nH]c2ccccc12)NC(=O)[C@H](CCCN=C(N)N)NC(=O)[C@H](CCCN=C(N)N)NC(=O)[C@H](CCCN=C(N)N)NC(=O)[C@@H](N)CCCN=C(N)N)C(=O)O [RRRRWWWWRRRR]

MIC [12]: 2.75 µM (≈ 4 µg/mL)
MIC [13]: > 44 µM
MIC [14]: ≥ 44 µM
MIC [15]: 22 µM (≈ 32 µg/mL)
SMILES: NC(N)=NCCC[C@H](NC(=O)[C@H](CCCN=C(N)N)NC(=O)[C@H](CCCN=C(N)N)NC(=O)[C@H](CCCN=C(N)N)NC(=O)[C@H](CCCN=C(N)N)NC(=O)[C@H](CCCN=C(N)N)NC(=O)[C@H](CCCN=C(N)N)NC(=O)[C@H](CCCN=C(N)N)NC(=O)[C@@H](N)Cc1c[nH]c2ccccc12)C(=O)O [WRRRRRRRR]

MIC [8]: > 128 µM
MIC [9]: ≥ 128 µM
MIC [10]: > 128 µM
MIC [11]: > 128 µM
SMILES: CSCC[C@H](NC(=O)[C@@H](NC(=O)[C@@H](N)CCCCN)C(C)C)C(=O)N[C@@H](CCCN=C(N)N)C(=O)N[C@@H](CCC(=O)O)C(=O)N[C@H](C(=O)N[C@@H](CC(C)C)C(=O)NCC(=O)N[C@@H](Cc1ccc(O)cc1)C(=O)N[C@@H](CCC(=O)O)C(=O)N[C@@H](CCCN=C(N)N)C(=O)N[C@@H](CC(N)=O)C(=O)N[C@@H](CO)C(=O)N[C@@H](Cc1ccc(O)cc1)C(=O)N[C@@H](CCCCN)C(N)=O)C(C)C [KVMREVLGYERNSYK]

MIC [16]: 1.6 µM (≈ 2.46 µg/mL)
MIC [17]: 0.1 µM (≈ 0.154 µg/mL)
MIC [18]: 0.8 µM (≈ 1.23 µg/mL)
MIC [19]: 1.6 µM (≈ 2.46 µg/mL)
MIC [20]: 0.4 µM (≈ 0.614 µg/mL)
MIC [21]: 0.8 µM (≈ 1.23 µg/mL)
MIC [22]: 0.4 µM (≈ 0.614 µg/mL)
MIC [23]: 3.1 µM (≈ 4.76 µg/mL)
MIC [24]: 3.1 µM (≈ 4.76 µg/mL)
SMILES: CC(C)C[C@H](NC(=O)[C@H](C)NC(=O)[C@H](CCCCN)NC(=O)[C@H](CC(C)C)NC(=O)[C@@H](N)Cc1ccccc1)C(=O)N[C@@H](Cc1c[nH]c2ccccc12)C(=O)N[C@@H](CCCCN)C(=O)N[C@H](C(=O)N[C@@H](C)C(=O)N[C@@H](CCCCN)C(=O)N[C@@H](CO)C(=O)N[C@H](C(=O)N[C@@H](Cc1ccccc1)C(N)=O)C(C)C)C(C)C [FLKALWKVAKSVF]

MIC [8]: > 128 µM
MIC [9]: ≥ 128 µM
MIC [10]: > 128 µM
MIC [11]: > 128 µM
SMILES: CSCC[C@H](NC(=O)[C@@H](NC(=O)[C@H](CCCCN)NC(=O)[C@H](Cc1cnc[nH]1)NC(=O)[C@H](CC(C)C)NC(=O)CN)C(C)C)C(=O)N[C@@H](CCCN=C(N)N)C(=O)N[C@@H](CCC(=O)O)C(=O)N[C@H](C(=O)N[C@@H](CC(C)C)C(=O)NCC(=O)N[C@@H](Cc1ccc(O)cc1)C(N)=O)C(C)C [GLHKVMREVLGY]
